In US11166946B2 (CURATIS AG, priority 2018, dated 2021):
Like-named read-outs stand apart in the source and are kept apart here.

Columns and labels:
[1] = oral administration; biphasic clearance; cited from earlier work
[2] = single administration 300 mg, human subjects; cited from earlier work
platelets = conditions: in vitro; cited from earlier work
[3] = test system: patients with peripheral vascular disease; conditions: 300 mg, PO, t.i.d., 18-month period, 2,304 patients; cited from earlier work
[4] = test system: patients presenting with migraine with aura; assay: Randomized, double-blind, placebo controlled crossover study, aura events; type: in vivo, human
Procedure: A multi-center, randomized, double-blind, placebo controlled crossover study was conducted with picotamide. […] The overall study duration was 7×4 weeks. […] “Aura Events” was one of the parameters that was measured. […] These observations were particularly observed in a subgroup of patients (moderate patients) that on average had 3 to 6 aura events per month prior to study enrollment. Patients with less than 3 aura events per month could be considered mild patients and would therefore benefit to a lesser degree from treatment. Patients with 7 or more aura events could be considered severe patients that are difficult to treat.

mouse, rat and dog = conditions: cited from earlier work
rat = conditions: in vivo, cited from earlier work
mouse = conditions: in vivo, cited from earlier work

Compound	plasma clearance half-life, first rapid phase [1]	time to reach maximum concentration (Tmax) [2]	inhibition of platelet aggregation, degranulation and TxB2 production (platelets)	effectiveness and safety [3]	number of auras (aura events) ([4]; 300 mg twice daily 3×4 weeks, then placebo (Sequence A))	duration of continued improvement after switch to placebo ([4]; Sequence A, after 3×4 weeks of picotamide)	tolerability after subacute and chronic treatment (mouse, rat and dog; IP and PO, mouse, rat and dog)	embryotoxic or teratogenic effects (mouse, rat and dog; in vivo)	LD50 (rat; ip)	LD50 (rat; po)	LD50 (mouse; ip)	LD50 (mouse; po)
COc1ccc(C(=O)NCc2cccnc2)cc1C(=O)NCc1cccnc1 [picotamide monohydrate]	about 2 hours	–	–	–	–	–	–	–	–	–	–	–
COc1ccc(C(=O)NCc2cccnc2)cc1C(=O)NCc1cccnc1 [picotamide, 4-methoxy-N,N′-bis(pyridin-3-ylmethyl)benzene-1,3-dicarboxamide]	–	30 to 45 min	inhibits in vitro platelet aggregation, degranulation, and TxB2 production, in a dose dependent manner	effective and well-tolerated antiplatelet drug with an incidence of adverse reactions similar to that of placebo	reduces the number of auras even after picotamide administration	continued to improve for another 2×4 weeks	well tolerated	did not induce embryotoxic or teratogenic effects	685 ± 27 mg/kg	> 3,000 mg/kg	942 ± 29 mg/kg	> 3,000 mg/kg
